The numbers were not newly measured in patent US20190142336A1, “SYSTEMS AND METHODS FOR DETERMINING RESPONSE TO ANESTHETIC AND SEDATIVE DRUGS USING MARKERS OF BRAIN FUNCTION” (THE GENERAL HOSPITAL CORPORATION, priority 2016, published 2019), which cites them from elsewhere.

Molecules are shown by their SMILES.

For data set [1], the system named is dopamine and norepinephrine reuptake transporters.
For data set [2] the following is noted: plethysmography and blood gas.

Consider `O=C(CCCN1CC=C(n2c(=O)[nH]c3ccccc32)CC1)c1ccc(F)cc1` [droperidol], for which the “behavioral and respiratory effects induced by methylphenidate” value in data set [1] (given against methylphenidate-induced arousal) is recorded as “inhibited”.

Consider `COC(=O)C(c1ccccc1)C1CCCCN1` (stereo not drawn) [methylphenidate], for which the “emergence from general anesthesia” value in data set [1] (isoflurane general anesthesia) was “actively induces emergence”. The minute ventilation result in data set [2] is given as “increases minute ventilation”.
